# According to US9796753B2, “N-substituted indenoisoquinolines and syntheses thereof” (Purdue Research Foundation, priority 2005, dated 2017):
# Where two headings read alike, the source gives them in different places.
# Experiments:
# Assay type in all cases: cell-based
# [1] = system: all human cancer cell lines successfully tested; experiment: NCI screen mean graph midpoint (MGM) for growth inhibition
# Procedure: COMPARE screening. The compounds described herein were examined for antiproliferative activity against the human cancer cell lines in the National Cancer Institute screen (COMPARE screening), in which the activity of each compound was evaluated with approximately 55 different cancer cell lines of diverse tumor origins. […] Therefore, the MGM value represents an overall assessment of toxicity of the compound across numerous cell lines.
# (§1) Selected compounds were tested for antiproliferative activity in the National Cancer Institute's developmental therapeutics assay 60 cell line screen (NCI60). The cells were incubated with the tested compounds at 100, 10, 1, 0.1, and 0.01 μM concentrations for 48 h before treatment with sulforhodamine B dye. Optical densities were recorded, and their ratios relative to that of the control were plotted as percentage growth against the log 10 of the tested compound concentrations.
# The cytotoxicities of the compounds to cultured cancer cells were measured in the National Cancer Institute's 60 cell line assay (a.k.a. NCI-60).
# ovarian OVCAR-3 = experiment: COMPARE screening (NCI human cancer cell line screen), cytotoxicity GI50
# Procedure: as §1
# colon HCT-116 = experiment: as above
# Procedure: as §1
# prostate DU-145 = experiment: as above
# Procedure: as §1
# CNS SF-539 = experiment: as above
# Procedure: as §1
# lung HOP-62 = experiment: as above
# Procedure: as §1
# renal SN12C = experiment: as above
# Procedure: as §1
# melanoma UACC-62 = experiment: as above
# Procedure: as §1
# breast MDA-MB-435 = experiment: as above
# [2] = all human cancer cell lines successfully tested
# [3] = ovarian OVCAR-3, concentration corresponding to 50% growth inhibition, read-out: cytotoxicity (GI50 in μM) ovarian OVCAR-3
# [4] = colon HCT-116, concentration corresponding to 50% growth inhibition, read-out: cytotoxicity (GI50 in μM) colon HCT-116
# [5] = prostate DU-145, concentration corresponding to 50% growth inhibition, read-out: cytotoxicity (GI50 in μM) prostate DU-145
# [6] = CNS SF-539, concentration corresponding to 50% growth inhibition, read-out: cytotoxicity (GI50 in μM) CNS SF-539
# [7] = lung HOP-62, concentration corresponding to 50% growth inhibition, read-out: cytotoxicity (GI50 in μM) lung HOP-62
# [8] = renal SN12C, concentration corresponding to 50% growth inhibition, read-out: cytotoxicity (GI50 in μM) renal SN12C
# [9] = melanoma UACC-62, concentration corresponding to 50% growth inhibition, read-out: cytotoxicity (GI50 in μM) melanoma UACC-62
# [10] = breast MDA-MB-435, concentration corresponding to 50% growth inhibition, read-out: cytotoxicity (GI50 in μM) breast MDA-MB-435
# [11] = Table 1, average GI50 of all cell lines tested (approximately 55), test range 10^−8 to 10^−4 molar
# [12] = Homo sapiens, OVCAR-3, read-out: cytotoxicity (GI50) ovarian OVCAR-3
# [13] = Homo sapiens, HCT-116, read-out: cytotoxicity (GI50) colon HCT-116
# [14] = Homo sapiens, DU-145, read-out: cytotoxicity (GI50) prostate DU-145
# [15] = Homo sapiens, CNSSF-539, read-out: cytotoxicity (GI50) CNS SF-539
# [16] = Homo sapiens, HOP-62, read-out: cytotoxicity (GI50) lung HOP-62
# [17] = Homo sapiens, SN12C, read-out: cytotoxicity (GI50) renal SN12C
# [18] = Homo sapiens, UACC-62, read-out: cytotoxicity (GI50) melanoma UACC-62
# [19] = Homo sapiens, MDA-MB-435, read-out: cytotoxicity (GI50) breast MDA-MB-435
Compound,GI50 (ovarian OVCAR-3),GI50 (colon HCT-116),GI50 (prostate DU-145),GI50 (CNS SF-539),GI50 (lung HOP-62),GI50 (renal SN12C),GI50 (melanoma UACC-62),GI50 (breast MDA-MB-435),"MGM (mean graph midpoint for growth inhibition) [1, 11]",also measured
"O=C(O)C(F)(F)F.O=C(O)C(F)(F)F.O=C1c2ccccc2-c2c1c1ccc([N+](=O)[O-])cc1c(=O)n2CCCNCCCNCCCn1c2c(c3ccc([N+](=O)[O-])cc3c1=O)C(=O)c1ccccc1-2 [Compound 14n, Bis-1,3-{(5,6-dihydro-5,1-diketo-3-nitro-11H-indeno[1,2-c]isoquinoline)-6-propylamino}propane Bis{trifluoroacetate)]",–,–,–,–,–,–,–,–,–,"MGM (mean graph midpoint for growth inhibition) [1, 2]: 1.50 ± 0.24 µM; GI50 (ovarian OVCAR-3; [3]): 2.29 µM; GI50 (colon HCT-116; [4]): 1.45 µM; GI50 (prostate DU-145; [5]): 0.912 µM; GI50 (CNS SF-539; [6]): 1.17 µM; GI50 (lung HOP-62; [7]): 3.02 µM; GI50 (renal SN12C; [8]): 1.17 µM; GI50 (melanoma UACC-62; [9]): 1.78 µM; GI50 (breast MDA-MB-435; [10]): 3.89 µM"
"COc1cc2c3c(n(CCCn4cncn4)c(=O)c2cc1OC)-c1cc2c(cc1C3=O)OCO2.Cl [Compound 5n, 6-{3-[2-(1,2,4)]-Triazolyl-1-propyl}-5,6-dihydro-2,3-dimethoxy-8,9-methylenedioxy-5,11-dioxo-11H-indeno[1,2-c]isoquinoline Hydrochloride]",61.7 µM,1.91 µM,0.085 µM,0.288 µM,0.079 µM,0.085 µM,< 0.01 µM,> 100 µM,–,"MGM (mean GI50 across cell lines) [1, 11]: 3.55 µM"
"Cl.NCCCCCn1c2c(c3ccccc3c1=O)C(=O)c1ccccc1-2 [Compound 5ao, 6-(5-Aminopentyl)-5,6-dihydro-5,11-diketo-11H-indeno[1,2-c]isoquinoline Hydrochloride]",–,–,–,–,–,–,–,–,0.471 ± 0.054 µM,GI50 (ovarian OVCAR-3; [12]): 0.708 µM; GI50 (colon HCT-116; [13]): 0.2 µM; GI50 (prostate DU-145; [14]): 0.347 µM; GI50 (CNS SF-539; [15]): 0.871 µM; GI50 (lung HOP-62; [16]): 0.288 µM; GI50 (renal SN12C; [17]): 0.398 µM; GI50 (melanoma UACC-62; [18]): 1.35 µM; GI50 (breast MDA-MB-435; [19]): 1.35 µM
COc1cc2c3c(n(CCCn4cccn4)c(=O)c2cc1OC)-c1cc2c(cc1C3=O)OCO2 [Compound 5m],56.2 µM,1.99 µM,0.363 µM,0.398 µM,0.447 µM,0.316 µM,0.269 µM,7.08 µM,2.16 ± 0.24 µM,–
"O=C1c2ccccc2-c2c1c1ccccc1c(=O)n2CCNCCO [Compound S-2, oracin, reference compound]",3.85 µM,1.12 µM,1.28 µM,1.65 µM,1.62 µM,0.95 µM,1.42 µM,2.56 µM,1.90 ± 0.80 µM,–
"COc1cc2c3c(n(CCCN4CCC(N)CC4)c(=O)c2cc1OC)-c1cc2c(cc1C3=O)OCO2.Cl.Cl [Compound 5u, 6-[3-(4-Aminopiperidinyl)-1-propyl]-5,6-dihydro-2,3-dimethoxy-8,9-methylenedioxy-5,11-dioxo-11H-indeno[1,2-c]isoquinoline Dihydrochloride]",–,0.12 µM,0.182 µM,0.1 µM,0.427 µM,0.257 µM,1.29 µM,1.74 µM,0.766 ± 0.254 µM,"GI50 (ovarian OVCAR-3; Table 1, concentration corresponding to 50% growth inhibition, read-out: cytotoxicity (GI50) ovarian OVCAR-3): 0.832 µM"
Cl.NCCCCn1c2c(c3ccccc3c1=O)C(=O)c1ccccc1-2 [Compound 5an],0.52 µM,0.1 µM,0.01 µM,0.1 µM,0.08 µM,0.04 µM,0.05 µM,0.84 µM,0.16 ± 0.01 µM,–
"Cl.NCCCCCCn1c2c(c3ccccc3c1=O)C(=O)c1ccccc1-2 [Compound 5ap, 6-(6-Aminohexyl)-5,6-dihydro-5,11-diketo-11H-indeno[1,2-c]isoquinoline Hydrochloride]",–,–,–,–,–,–,–,–,–,"MGM (mean GI50 across cell lines) [1, 11]: 1.32 µM; GI50 (ovarian OVCAR-3; [12]): 2 µM; GI50 (colon HCT-116; [13]): 0.912 µM; GI50 (prostate DU-145; [14]): 0.603 µM; GI50 (CNS SF-539; [15]): 1.23 µM; GI50 (lung HOP-62; [16]): 1.29 µM; GI50 (renal SN12C; [17]): 1.32 µM; GI50 (melanoma UACC-62; [18]): 1.62 µM; GI50 (breast MDA-MB-435; [19]): 2.04 µM"
COc1ccc2c(c1)C(=O)c1c-2n(CCCN(C)C)c(=O)c2ccccc12 [Compound 5bq],0.427 µM,0.102 µM,0.257 µM,0.24 µM,0.078 µM,0.245 µM,1 µM,0.617 µM,0.300 ± 0.072 µM,–
O=C1c2ccccc2-c2oc(=O)c3cc4c(cc3c21)OCO4 [Compound 4b],> 100 µM,> 100 µM,> 100 µM,> 100 µM,53.7 µM,> 100 µM,> 100 µM,> 100 µM,–,"MGM (mean GI50 across cell lines) [1, 11]: 57.5 µM"
"CC(C)(C)OC(=O)N(CCCn1c2c(c3ccccc3c1=O)C(=O)c1ccccc1-2)CCN(CCCn1c2c(c3ccccc3c1=O)C(=O)c1ccccc1-2)C(=O)OC(C)(C)C [Compound 13b, Bis-1,2-{(5,6-dihydro-5,11-diketo-11H-indeno[1,2-c]isoquinoline)-(6-propyl-tert-BOCamino)}ethane]",–,–,–,–,–,–,–,–,–,"MGM (mean GI50 across cell lines) [1, 2]: 28.2 µM; GI50 (ovarian OVCAR-3; [3]): 13.2 µM; GI50 (colon HCT-116; [4]): 14.1 µM; GI50 (prostate DU-145; [5]): > 50.1 µM; GI50 (CNS SF-539; [6]): > 50.1 µM; GI50 (lung HOP-62; [7]): 20 µM; GI50 (renal SN12C; [8]): 39.8 µM; GI50 (melanoma UACC-62; [9]): 45.7 µM; GI50 (breast MDA-MB-435; [10]): > 50.1 µM"
COc1ccc2c(c1)C(=O)c1c-2n(CCCN2CCOCC2)c(=O)c2ccccc12 [Compound 5bk],2.69 µM,1.26 µM,2.29 µM,1.95 µM,1.41 µM,4.07 µM,1.58 µM,4.68 µM,2.70 ± 0.125 µM,–
"O=C1c2ccccc2-c2oc(=O)c3ccccc3c21 [Compound 4d, Benz[d]indeno[1,2-b]pyran-5,11-dione]",–,–,–,–,–,–,–,–,–,"MGM (mean GI50 across cell lines) [1, 11]: >100 µM; GI50 (ovarian OVCAR-3; [12]): > 100 µM; GI50 (colon HCT-116; [13]): > 100 µM; GI50 (prostate DU-145; [14]): > 100 µM; GI50 (CNS SF-539; [15]): > 100 µM; GI50 (lung HOP-62; [16]): > 100 µM; GI50 (renal SN12C; [17]): > 100 µM; GI50 (melanoma UACC-62; [18]): > 100 µM; GI50 (breast MDA-MB-435; [19]): > 100 µM"
Cl.NCCCn1c2c(c3ccccc3c1=O)C(=O)c1ccccc1-2 [Compound 5am],1.38 µM,0.18 µM,0.22 µM,0.25 µM,0.2 µM,0.16 µM,0.26 µM,0.78 µM,0.32 ± 0.23 µM,–
"O=C(O)C(F)(F)F.O=C1c2ccccc2-c2c1c1ccccc1c(=O)n2CCCNCCn1c2c(c3ccccc3c1=O)C(=O)c1ccccc1-2 [Compound 14a, Bis{(5,6-dihydro-5,11-diketo-11H-indeno[1,2-c]isoquinoline)}-(6-ethyl,6′-propyl)ammonium Trifluoroacetate]",8.91 µM,1.05 µM,1.91 µM,14.5 µM,0.977 µM,11 µM,5.01 µM,2.24 µM,–,"MGM (mean GI50 across cell lines) [1, 2]: 5.25 µM"
COc1ccc2c(c1)C(=O)c1c-2n(CCCNCCO)c(=O)c2ccccc12.Cl [Compound 5bn],0.417 µM,0.044 µM,0.055 µM,0.112 µM,0.026 µM,0.158 µM,0.55 µM,0.389 µM,0.124 ± 0.014 µM,–
